Results on two compounds are retold here after US9283235B2, “Intermittent lowering of cortisol as treatment of clinical conditions associated with abnormal concentrations of cortisol in animals” (Stegram Pharmaceuticals Limited, priority 2001, dated 2016).

The subject of test [1] is dogs with hyperadrenocorticism (HAC). In words: Prospective study of trilostane in dogs with spontaneous hyperadrenocorticism (HAC): clinical signs and survival. The following applies: given to 4 dogs for three to four days before enrolment. Format: in vivo, dog. The method, then: Animals were entered into a prospective study and all animals required clinical and laboratory signs of hyperadrenocorticism as well as a final diagnosis of this disease. Data collected from each case included a clinical-historicy and physical examination, full blood count (CBC), serum biochemical profile, urinalysis and abdominal ultrasound. An ACTH-stimulation test was performed in all dogs. […] Dogs that had been treated for HAC other medication needed to be off these drugs for at least 10 days. Dogs with renal or hepatic insufficiency and dogs that received steroids were not included in the study.
Dogs with pituitary dependant hyperadrenocorticism or adrenal tumour which was unresectable or the owners were unwilling to have surgery performed, respectively, were treated with trilostane. The initial dose for dogs[…] was 30 mg once daily, dogs between 5 and 15 kg received 60 mg once daily and dogs>15 kg received 120 mg once daily. Dosages were adjusted based on clinical signs, blood biochemical parameters and an ACTH stimulation test.
Follow-up re-examinations took place after 10 days, 4 weeks, 3 mouths, 6 months and then every 6 months or within 4 weeks of adjusting the dosage. At these points, owners were carefully questioned about their perception of the dogs general well being, dissolution of clinical signs and potential side effects and a physical examination was performed. A full biochemical profile and an ACTH stimulation test were carried out. Further tests such as urinanalysis, urine culture, thoracic radiographs, etc. were done if deemed necessary. If the clinical sips of hyperadrenocorticism (polyuria/polydipsia, polyphagia, exercise intolerance, etc.) were still present and if the post-ACTH cortisol concentration remained above 220 nmol/l, trilostane was given twice daily at the same dosage.

The subject of another test is canine PDH. Conditions: of 10 dogs studied; cited from earlier work.

In the case of `Clc1ccc(C(c2ccccc2Cl)C(Cl)Cl)cc1` (centres unmarked) [Lysodren], the Clinical effect result in test [1] is reported as “did not show any clinical effect”.
As to `C#CCN(C)[C@H](C)Cc1ccccc1` [L-Deprenyl], in the test on canine PDH, the “Dogs with improvement of clinical signs” value was 2 dogs.
